Patent publication US20250145637A1, “SULFONAMIDE DERIVATIVE, PREPARATION METHOD THEREFOR AND MEDICAL USE THEREOF” (Jiangsu Hengrui Pharmaceuticals Co. Ltd., priority 2021, published 2025)

Assays:
human KAT6A = human KAT6A (Homo sapiens (Human), UniProt Q92794); assay: KAT6 enzyme activity assay (AlphaScreen method), KAT6A; assay type: biochemical; conditions: inhibition of the enzyme human KAT6A
Description: Test Example 1: KAT6 Enzyme Activity Assay (AlphaScreen Method)
I. Reagents and instrument • 1. KAT6A (customized by Chempartner) • 2. Ovalbumin (Sigma-Aldrich, A5378-5G) • 3. 2 M Tris-HCl solution, pH 7.8, sterile (Sangon, B548140-0500) • 4. 5 M NaCl solution (Sangon, B548121-0100) • 5. EDTA (0.5 M), pH 8.0, RNase-free (Thermofisher, AM9260G) • 6. Tween-20 (Sangon, A100777-0500) • 7. DTT, 1 M (Invitrogen, P2325) • 8. Acetyl coenzyme A (Ac-CoA, CAYMAN, Cat. No. 16160) • 9. Recombinant histone H3.1 biotinylated (human) (Active Motif 31696) • 10. 384-well plate, light gray (Perkin Elmer, Cat. No. 6005350) • 11. Anacardic acid (MCE, Cat. No. HY—N2020) • 12. AlphaScreen streptavidin donor beads, 5 mg (PerkinElmer, 6760002) • 13. AlphaScreen protein A acceptor beads, 5 mg (PerkinElmer, 6760137M) • 14. Acetylated-lysine antibody #9441 (CST 9441S) • 15. PHERA star microplate reader (BMG labtech) • II. Experimental method
a. 1× assay buffer: 100 mM Tris-HCl, pH 7.8; 15 mM NaCl; 1 mM EDTA; 0.01% tween-20; 1 mM DTT; 0.01% m/v ovalbumin.
b. KAT enzyme solution: 1.25 nM (final concentration), prepared in 1× assay buffer.
c. Mixed substrate of Ac-CoA and H3: a mixed substrate of 1000 nM (final concentration) Ac-CoA and 55 nM (final concentration) H3, prepared in 1× assay buffer.
d. Compounds: initial concentration of 100 μM, 3-fold dilution, 10 gradient concentrations. All compound concentrations were diluted 83-fold with 1× assay buffer for later use.
e. Assay reagent: 8 ng/μL (final concentration) AlphaScreen protein A acceptor beads, 8 ng/μL AlphaScreen streptavidin donor beads, 1:1500 diluted acetylated-lysine antibody, and 100 μM anacardic acid; prepared in 1× assay buffer.
2. Experimental Procedure
a. The prepared enzyme solution was added to a 384-well plate at 3 μL/well, and 3 μL of 1× assay buffer was added to each well in columns 23 and 24 (Min).
b. 3 μL of compound solution was added to each well, and 3 μL of buffer was added to each Min well; 3 μL of DMSO solution was added to each well in columns 1 and 2 (Max) as controls. The plate was centrifuged, shaken for 2 min, and incubated at room temperature for 15 min.
c. The mixed substrate of Ac-CoA and H3 was added at 6 μL/well, and the plate was centrifuged, shaken for 2 min, and incubated at room temperature for 20 min.
d. The assay reagent was added at 6 μL/well, and the plate was centrifuged, shaken for 2 min, and incubated in the dark at room temperature for 120 min.
e. Plate reading was performed on the microplate reader, and AlphaScreen counts were recorded.
f. Plotting was performed using the Graphpad software, and the IC50 values of the compounds were calculated.

[1] = Pharmacokinetic evaluation in SD rats; assay type: in vivo; conditions: both sexes, rat, plasma, po, i.g., 2.0 mg/kg
Protocol: Test Example 5: Pharmacokinetic Evaluation
SD rats were used as test animals. After intragastric (i.g.) administration of the compounds of the present disclosure to SD rats, the plasma concentrations at different time points were measured by the LC/MS/MS method. The pharmacokinetic behavior of the compounds of the present disclosure in SD rats was studied, and their pharmacokinetic profiles were evaluated.
Compound 2, compound 7, compound 21, and compound 23.
16 SD rats, of which half were male and half female, were evenly divided into 4 groups. The rats were provided by Vital River Laboratory Animal Technology Co., Ltd. The rats were fasted overnight and intragastrically administered the compounds.
2.3. Compound Solution Preparation
A certain amount of test compound was weighed out and dissolved in 5% DMSO+5% tween 80+90% normal saline to prepare a 0.2 mg/mL colorless clear solution.
The dose administered was 2.0 mg/kg, and the volume was 10.0 mL/kg.
0.1 mL blood samples were collected from the orbit before the administration and 0.25 h, 0.5 h, 1.0 h, 2.0 h, 4.0 h, 6.0 h, 8.0 h, 11.0 h and 24.0 h post-dose. The blood samples were placed into EDTA-K2 anticoagulation tubes and centrifuged at 10,000 rpm for 1 min (4° C.), and plasma was separated within 1 h and stored at −20° C. before analysis. The process from the blood collection to the centrifugation was performed in an ice bath. Access to food was given 2 h post-dose.
Measurement of plasma concentrations in SD rats after compounds were administered in different concentrations: 25 μL samples of the SD rat plasma collected at various time points post-dose were taken, and to each of the samples was added 25 μL of camptothecin (an internal standard for compound 2, 100 ng/mL) or 50 μL of tolbutamide (an internal standard for compound 7, 100 ng/mL) or 50 μL of verapamil (an internal standard for compounds 21 and 23, 100 ng/mL). Protein was precipitated with 200 μL of acetonitrile, and after 5 min of vortexing, the mixtures were centrifuged at 3700 rpm for 10 min. 120 µL of supernatant was taken and vortexed with 30 μL of water for 5 min, and a 5 μL sample was taken for LC/MS/MS analysis.

ZR-75-1 = ZR-75-1 proliferation assay (CellTiter-Glo, day 14); assay type: cell-based; conditions: Homo sapiens, 336 h, CTG assay day 14
Description: Test Example 4: ZR-75-1 Proliferation Assay
I. Reagents and Instruments
• 1. ZR-75-1 (ATCC CRL1500) • 2. 1640 medium (Gibco, 22400-089) • 3. 0.25% trypsin-EDTA (1×) (Gibco, 25200-072) • 4. Penicillin-streptomycin (Gibco, 15140-122) • 5. DPBS (1×) (Gibco, 14190-144) • 6. FBS (Gibco, 10091148) • 7. Assay plate, 96-well, black with clear bottom (Corning, 3603) • 8. 96-well non-treated round-bottom plate (JET BIOFIL, TCP-002-096) • 9. CellTiter-Glo buffer (Promega, G756B) • 10. CellTiter-Glo substrate (Promega, G755B) • 11. Automatic cell counter (Countstar, IC1000) • 12. Thermostatic incubator (Thermo, 1160) • 13. PHERAstar FS (BMG labtech, PHERAstar FS)
a. The state of cells was observed under a microscope to make sure that the cell confluence was about 90%.
b. The cell supernatant was discarded. The cells were rinsed with DPBS once, and the DPBS was removed. The cells were digested with a proper amount of trypsin and left to stand at 37° C. for 5 min.
c. The digestion was stopped with an equal volume of 1640 medium containing 10% FBS, and the cell suspension was collected and centrifuged at 300 g for 3 min. The cells were suspended in a proper amount of fresh medium.
d. The resulting cell suspension was collected and cell counting was performed.
e. The cell suspension was diluted to 5×10^4/mL, 50 μL/well with 1640 medium containing 10% FBS. Each well contained 2500 ZR-75-1 cells.
f. The cell culture plates were incubated overnight in a 37° C., 5% carbon dioxide incubator.
2. Compound Addition (Day 1)
a. Each compound was serially diluted in DMSO to 9 concentration points (initial concentration of 100 μM, 3-fold dilution; the highest concentration of each compound may be adjusted depending on its IC50). For example, in a 96-well non-treated round-bottom plate, 3 μL of compound was serially diluted in 6 μL of DMSO.
b. Each concentration point of each compound was diluted 500-fold in the corresponding volume of 1640 medium.
c. 50 μL of diluted compound solution was added to the cell supernatant (50 μL/well) in each cell plate.
d. After the addition, the cell plates were incubated in a 37° C., 5% carbon dioxide incubator.
3. The Cells were Re-Digested and Plated, and the Compounds were Added (Day 7).
a. Six days after the addition, the compound-containing medium was discarded. Then the cells were rinsed with DPBS (150 μL/well), and the DPBS was immediately pipetted off.
b. The cells were digested with 50 μL of trypsin and left to stand at 37° C. for 3 min, and then the digestion was stopped with 1640 medium containing 10% FBS (150 μL/well).
c. The cells were well mixed using a pipette and re-plated at a ratio of 1:8; that is, 25 μL of cell suspension was pipetted into a new 96-well plate (25 μL of 1640 medium containing 10% FBS had been added to the new plate in advance).
d. Compound solution preparation and addition (50 μL/well) were performed according to steps a to c in 2.
e. After the addition, the cell plates were incubated in a 37° C., 5% carbon dioxide incubator.
a. CellTiter-Glo buffer and lyophilized CellTiter-Glo substrate were equilibrated to room temperature before use and were well mixed to prepare a 100-mL CellTiter-Glo reagent (or a prepared CellTiter-Glo reagent was removed from a −20° C. freezer and equilibrated to room temperature).
b. The plates to be tested were removed from the incubator and equilibrated to room temperature, and the CellTiter-Glo reagent was added at 50 μL/well.
c. The plates were shaken for 2 min so that the cells were completely lysed.
d. After the plates were left to stand at room temperature for 28 min and signals were stable, the plates were tested on PHERAstar FS.

ER+ breast cancer = conditions: both in vitro and in vivo; cited from earlier work
ERα expression = conditions: ER+ breast cancer cells highly expressing KAT6A; cited from earlier work

Chain of human KAT6A (Q92794 whole entry): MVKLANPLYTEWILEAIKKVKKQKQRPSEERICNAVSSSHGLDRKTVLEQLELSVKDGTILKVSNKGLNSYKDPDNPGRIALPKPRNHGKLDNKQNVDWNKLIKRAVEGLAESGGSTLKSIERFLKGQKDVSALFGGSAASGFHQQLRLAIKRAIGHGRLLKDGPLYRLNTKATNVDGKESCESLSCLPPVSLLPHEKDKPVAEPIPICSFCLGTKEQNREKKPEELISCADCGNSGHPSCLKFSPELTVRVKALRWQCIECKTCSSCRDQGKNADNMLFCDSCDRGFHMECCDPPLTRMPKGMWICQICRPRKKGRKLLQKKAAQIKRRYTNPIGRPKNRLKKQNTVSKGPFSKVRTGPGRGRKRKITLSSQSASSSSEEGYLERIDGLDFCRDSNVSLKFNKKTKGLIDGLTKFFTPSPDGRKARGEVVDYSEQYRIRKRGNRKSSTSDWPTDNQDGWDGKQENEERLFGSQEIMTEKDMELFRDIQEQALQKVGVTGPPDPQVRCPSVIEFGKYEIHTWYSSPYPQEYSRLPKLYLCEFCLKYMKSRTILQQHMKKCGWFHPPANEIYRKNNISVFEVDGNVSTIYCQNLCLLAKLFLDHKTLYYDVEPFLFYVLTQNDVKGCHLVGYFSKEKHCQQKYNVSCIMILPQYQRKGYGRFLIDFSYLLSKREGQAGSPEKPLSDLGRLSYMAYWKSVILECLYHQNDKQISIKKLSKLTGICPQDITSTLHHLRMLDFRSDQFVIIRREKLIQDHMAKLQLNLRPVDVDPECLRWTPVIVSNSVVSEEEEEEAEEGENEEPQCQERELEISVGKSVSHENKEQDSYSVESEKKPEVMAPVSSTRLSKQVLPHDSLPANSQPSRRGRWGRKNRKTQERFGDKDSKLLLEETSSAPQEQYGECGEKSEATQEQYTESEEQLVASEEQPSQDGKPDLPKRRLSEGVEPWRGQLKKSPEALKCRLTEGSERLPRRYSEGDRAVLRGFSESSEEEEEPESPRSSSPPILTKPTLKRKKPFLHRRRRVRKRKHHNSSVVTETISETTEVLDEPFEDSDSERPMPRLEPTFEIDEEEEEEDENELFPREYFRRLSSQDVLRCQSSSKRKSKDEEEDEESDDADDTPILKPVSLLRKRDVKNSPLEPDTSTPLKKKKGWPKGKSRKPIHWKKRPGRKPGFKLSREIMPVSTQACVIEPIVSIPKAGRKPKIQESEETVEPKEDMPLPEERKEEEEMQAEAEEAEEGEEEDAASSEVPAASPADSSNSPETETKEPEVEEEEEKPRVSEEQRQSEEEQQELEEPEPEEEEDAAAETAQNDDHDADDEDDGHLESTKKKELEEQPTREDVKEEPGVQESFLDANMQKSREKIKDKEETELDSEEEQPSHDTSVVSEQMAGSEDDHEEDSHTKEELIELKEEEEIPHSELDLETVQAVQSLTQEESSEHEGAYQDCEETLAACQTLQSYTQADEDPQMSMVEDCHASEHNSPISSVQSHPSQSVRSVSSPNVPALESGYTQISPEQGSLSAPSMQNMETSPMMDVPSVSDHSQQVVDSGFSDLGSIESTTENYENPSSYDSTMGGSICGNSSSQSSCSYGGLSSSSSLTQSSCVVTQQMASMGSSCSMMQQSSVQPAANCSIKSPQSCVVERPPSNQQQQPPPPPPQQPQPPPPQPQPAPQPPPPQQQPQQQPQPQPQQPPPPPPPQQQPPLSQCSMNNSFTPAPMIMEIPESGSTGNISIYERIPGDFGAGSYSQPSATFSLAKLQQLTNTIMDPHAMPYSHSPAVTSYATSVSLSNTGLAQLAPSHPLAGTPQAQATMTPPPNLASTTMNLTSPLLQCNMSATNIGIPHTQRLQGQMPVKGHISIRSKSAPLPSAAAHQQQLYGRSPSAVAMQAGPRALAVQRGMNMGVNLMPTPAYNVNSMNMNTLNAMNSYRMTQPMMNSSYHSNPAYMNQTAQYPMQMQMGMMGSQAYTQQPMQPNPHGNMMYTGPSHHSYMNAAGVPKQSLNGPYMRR

SMILES	IC50 (human KAT6A) [nM]	Vd/F ([1]; read-out: Apparent distribution volume Vz/F) [L/kg]	AUC(0-t) ([1]; read-out: Area under curve AUC0-t) [ng·h/mL]	CL/F ([1]; read-out: Clearance rate CL/F) [mL/min/kg]	half-life ([1]; read-out: Half-life T½ (converted)) [min]	Cmax ([1]; read-out: Plasma concentration Cmax) [ng/mL]	IC50 (ZR-75-1; ZR-75-1 proliferation) [nM]	Emax (ZR-75-1; inhibition of ZR-75-1 proliferation, read-out: Maximum inhibition rate/Imax %) [%]	anti-tumor activity in ER+ breast cancer (ER+ breast cancer)	ERα expression (ERα expression)
Cc1ccc(S(=O)(=O)Nc2noc3cc(Cn4cccn4)c4c(c23)OCC4)c(OCC(F)(F)F)c1 [Compound 21, N-(4-((1H-pyrazol-1-yl)methyl)-2,3-dihydrobenzofuro[7,6-d]isoxazol-8-yl)-4-methyl-2-(2,2,2-trifluoroethoxy)benzenesulfonamide]	4.6	0.496	43700	0.788	575	4310	–	–	–	–
COc1cc2c(cc1S(=O)(=O)Nc1noc3cc(Cn4cccn4)c4c(c13)OCCC4)CCC2 [Compound 6, N-(5-((1H-pyrazol-1-yl)methyl)-3,4-dihydro-2H-chromeno[8,7-d]isoxazol-9-yl)-6-methoxy-2,3-dihydro-1H-indene-5-sulfonamide]	0.4	–	–	–	–	–	0.6	95.4	–	–
COc1cccc(OC)c1S(=O)(=O)Nc1noc2cc(Cn3cccn3)cc(OC)c12 [CTx-648]	–	–	–	–	–	–	–	–	shows anti-tumor activity	can down-regulate ERα expression
